According to patent publication US20050034187A1, “Modified tet-inducible system for regulation of gene expression in plants” (priority 2000, published 2005):

Tested on: TripleX/GUS (pAC499) repressed by nTR under control of different promoters
Experiment: Leaf disk induction experiment, GUS assay (double transformants)
Assay type: cell-based, tobacco
Settings: Doxy 5 mg/l, leaf disks, FIG. 2
Source text: FIG. 2—Induction of GUS Gene in Leaves Expressing NLS-tet Receptor Under Control of Different Promoters. Tobacco plants. already expressing pAC499 (TripleX/GUS) were transformed with […] pCAMBIA-based Agro cassettes carrying NPTII marker gene and nTR under control of 35S, 2×35S, A. thaliana HPPD, A. thaliana AHAS, A. thaliana Actin and (OCS)3MAS promoters (pACAG076, 077, 078, 079, 109 and 084), as well as pAC489 (35S/WtTR) to yield a number of transgenic lines. This collection of tobacco plants was tested in a preliminary induction experiment performed on leaf disks: 5-10 mm leaf disks were excised from plants and put into six- or twelve-well plates with liquid MS medium and with or without Doxy 5 mg/l at 5 mg/l. GUS assays were performed with the tissues 5 days later. Each bar represents one sample; numbers above the bars represent magnitude of induction.
FIG. 3—Induction of GUS Gene In Tobacco Leaves Expressing nTR Under Control of Different Promoters. […]
Evaluation of tet inducible system in plant tissues. […] These plates were cultivated in dark on shaker at 90 rpm for 5 days (three weeks for analysis of induction of herbicide resistance) and then used in assays or evaluated visually. […] Three weeks later the induction of regeneration from these disks was evaluated.

C[C@H]1c2cccc(O)c2C(=O)C2=C(O)[C@]3(O)C(=O)C(C(N)=O)=C(O)[C@@H](N(C)C)[C@@H]3[C@@H](O)[C@@H]21 [doxycycline]
magnitude of induction of GUS (nTR driven by 35S promoter, 5 days): 26 to 76 fold | maximum induction of GUS (nTR driven by HPPD and AHAS promoters): 1.4 fold
